Results: PMC6514812, “[^18F]Fluoroethyltriazolyl Monocyclam Derivatives as Imaging Probes for the Chemokine Receptor CXCR4” (Molecules, 2019)

Assays:
CXCR4 [1] = target: T1, CXCR4 (Homo sapiens, UniProt P61073); experiment: Competition binding assay vs [^68Ga]Pentixafor in PC3-CXCR4 cells
T1 construct: expressed in transfected cells; host or cells: PC3 (human prostate cancer) cells stably transduced with CXCR4
Description: (§1) PC3-CXCR4 cells were plated in 12-well plates at a density of 500,000 cells per well and incubated for 48 h at 37 °C/5% CO2. Prior to the binding assay the cells were incubated in fresh media and 370–555 kBq of [^68Ga]Pentixafor or [^18F]RPS-544 was added to each well. The corresponding concentration of [^68Ga]Pentixafor in each well was 100 nM, and the concentration of [^18F]RPS-544 was approximately 5 pM. Then non-radioactive ligands were added to give a final ligand concentration in the range 0.001–10,000 nM. A total of eight concentrations were studied, and each concentration was tested in triplicate. The cells were incubated for 60 min at 37 °C/5% CO2. The media was removed under suction, the cells were washed with cold PBS 1X and detached and transferred to tubes for counting in 1 M NaOH. The cells were counted in a Wizard^2 Gamma Counter (PerkinElmer, Waltham, MA, USA). Non-specific binding was subtracted, and the IC50 values were determined by assuming a simple competitive binding interaction and fitting the data to a sigmoidal Hill plot in Origin 9.0 (OriginLab, Northampton, MA, USA). Potencies are expressed as IC50 ± standard deviation (Supplemental Data, Figure S7).

CXCR4 [2] = target: T1, CXCR4; experiment: Saturation binding assay in PC3-CXCR4 cells
Description: To determine the dissociation constants, saturation binding assays were performed in the PC3-CXCR4 cells. The cells were plated as described above, and approximately 5 nM of the radioligand was added to each well. Then the corresponding non-radioactive ligand was added to give a final concentration in the range 0.001–10,000 nM. A total of eight concentrations were tested, and each concentration was tested in triplicate. The samples were washed and counted as described above. Non-specific binding was subtracted, and Kd values were determined by performing a nonlinear one site binding curve fit with equation y = (Bmax · x)/(Kd + x). Values are expressed as Kd ± standard deviation (Supplemental Data, Figure S8).

PC3-CXCR4 cells [3] = experiment: Cell-associated activity in PC3-CXCR4 cells; assay type: cell-based, human; settings: 1 h
Description: Maximum cell-associated activity was calculated by subtracting the cell uptake of the radioactive ligand at the highest non-radioactive ligand concentration of 10 µM (which we considered to be non-specific uptake/binding) from the cell uptake at the lowest non-radioactive ligand concentration of 10^−5 µM.

PC3-CXCR4 cells [4] = experiment: Internalization in PC3-CXCR4 cells; assay type: cell-based, human; settings: after 135 min incubation
Description: Internalization studies were performed for [^18F]RPS-534 and [^18F]RPS-547 in a time dependent manner. PC3-CXCR4 cells were plated as described above in 12-well plates and incubated for 48 h prior to the experiment. The media was exchanged and [^18F]RPS-534 or [^18F]RPS-547 (10^−5 μM; approximately 400 kBq) was added to each well. All experiments were performed in triplicate. […] Then the media was removed under suction at the corresponding temperature, and the cells washed with 1 mL PBS. Cell surface-bound activity was collected by two successive 5 min incubations of 0.5 mL of a 50 mM glycine buffer (pH = 2.8) performed at 4 °C or 37 °C. The cells were then washed with 1 mL ice-cold PBS and detached with 1 mL ice cold 1 M NaOH. Detached cells were collected and counted along with the washes. An aliquot of the administered radioactivity (10% IA) was also counted and used for quantification. The activity found in the NaOH fractions of the 4 °C plates was subtracted from the activities of the fractions at 37 °C to correct for non-specific binding. Internalized activity was expressed as the fraction of activity in the NaOH fraction relative to the total activity added.

[5] = Biodistribution in mice bearing bilateral PC3-WT/PC3-CXCR4 xenograft tumors; assay type: in vivo, BALB/c mice
Description: (§2) All animal studies were approved by the Institutional Animal Care and Use Committee of Weill Cornell Medicine (Protocol Number: 2015-0066) and were undertaken in accordance with the guidelines set forth by the USPHS Policy on Humane Care and Use of Laboratory Animals. Animals were housed under standard conditions in approved facilities with 12 h light/dark cycles. Food and water was provided ad libitum throughout the course of the studies. Hairless 6-to-8-week old male BALB/c inbred athymic nude mice (Jackson Laboratory, Bar Harbor, ME, USA) were inoculated bilaterally with 0.2 mL of a 1:1 mixture of 10^7 PC3-CXCR4 cells in PBS and Matrigel (Corning, Tewksbury, MA, USA) subcutaneously in the left shoulder and 0.2 mL of a 1:1 mixture of 10^7 PC3-WT cells in PBS and Matrigel subcutaneously in the right shoulder. Imaging and biodistribution studies were performed three weeks post-implantation, when tumors were approximately 100–300 mm^3.
(§3) For the biodistribution studies, tumor-bearing animals (n = 5/compound/time point) were injected intravenously with 50–100 μL of a 9% v/v EtOH/saline solution containing approximately 1.1 MBq of the radioligand. […] The mice were euthanized at 1 or 2 h p.i. and tissues including blood, heart, lungs, liver, small intestine, large intestine, stomach (with contents), spleen, pancreas, kidneys, muscle, bone, PC3-WT tumors, PC3-CXCR4 tumors, and tail were collected. All organs were weighed and placed in test tubes for counting in a Wizard^2 Gamma Counter (PerkinElmer, Waltham, MA, USA). For comparison, 1% injected activity standards were prepared and counted along with the tissue samples. The tails were counted to correct for any dose extravasation. Activity in each tissue was corrected for decay and for injected activity and expressed as percent injected dose per gram of tissue (%ID/g) ± standard error.

[6] = tested on: PC3-CXCR4 xenograft tumors; experiment: as above; assay type: in vivo, BALB/c mice
Description: as §2, §3

CXCR4 [7] = target: T1, CXCR4; experiment: Competition binding assay vs [^18F]RPS-544 in PC3-CXCR4 cells; settings: approx. 5 pM [^18F]RPS-544; p = 0.85
Description: as §1

[8] = 1 h p.i., blocked by co-injection of 5 mg/kg AMD-3100

T1 sequence (P61073 whole entry): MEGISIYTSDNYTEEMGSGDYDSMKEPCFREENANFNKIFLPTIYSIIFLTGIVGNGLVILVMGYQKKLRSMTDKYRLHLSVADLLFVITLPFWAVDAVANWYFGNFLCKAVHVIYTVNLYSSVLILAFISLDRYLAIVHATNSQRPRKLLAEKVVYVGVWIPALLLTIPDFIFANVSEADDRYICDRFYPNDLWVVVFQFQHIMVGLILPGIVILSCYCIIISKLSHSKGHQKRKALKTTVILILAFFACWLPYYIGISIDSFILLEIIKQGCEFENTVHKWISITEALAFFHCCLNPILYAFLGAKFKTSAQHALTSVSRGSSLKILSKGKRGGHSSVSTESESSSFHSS

decrease in affinity relative to RPS-544 (CXCR4 [1]): 30 fold
IC50 (CXCR4 [1]; vs 100 nM [^68Ga]Pentixafor, PC3-CXCR4 cells, 60 min 37 °C): 218 ± 38 nM
Hill Slope, Competitive Binding Experiment (CXCR4 [1]; vs [^68Ga]Pentixafor, value ± SD): 1.15 ± 0.34
Kd (CXCR4 [2]; saturation binding, PC3-CXCR4 cells): 176 ± 30 nM
Hill Slope, Saturation Binding Experiment (CXCR4 [2]; value ± SD): 1.05 ± 0.15
Blood tissue activity ([5]; 1 h p.i.): 0.30±0.08 %ID/g
Blood tissue activity [5, 8]: 0.26±0.15 %ID/g
Blood tissue activity ([5]; 2 h p.i.): 0.08±0.02 %ID/g
Bone tissue activity ([6]; 1 h p.i.): 1.44±0.04 %ID/g
Heart tissue activity ([6]; 1 h p.i.): 0.25±0.01 %ID/g
Kidneys tissue activity ([6]; 1 h p.i.): 7.43±0.96 %ID/g
Large Intestine tissue activity ([6]; 1 h p.i.): 0.29±0.06 %ID/g
Liver tissue activity ([6]; 1 h p.i.): 19.14 ± 0.42 %ID/g
Lungs tissue activity ([6]; 1 h p.i.): 1.01±0.09 %ID/g
Muscle tissue activity ([6]; 1 h p.i.): 0.19±0.03 %ID/g
PC3-CXCR4 Tumor Uptake ([6]; 1 h p.i.): 7.20 ± 0.30 %ID/g
PC3-CXCR4 Tumor-to-Tissue Ratio Blood ([6]; 1 h p.i.): 27.5 ± 0.4
PC3-CXCR4 Tumor-to-Tissue Ratio Bone ([6]; 1 h p.i.): 5.7 ± 0.4
PC3-CXCR4 Tumor-to-Tissue Ratio Kidneys ([6]; 1 h p.i.): 1.1 ± 0.4
PC3-CXCR4 Tumor-to-Tissue Ratio Liver ([6]; 1 h p.i.): 0.4 ± 0.2
PC3-CXCR4 Tumor-to-Tissue Ratio Lungs ([6]; 1 h p.i.): 8.0 ± 0.4
PC3-CXCR4 Tumor-to-Tissue Ratio Muscle ([6]; 1 h p.i.): 42.4 ± 0.1
PC3-CXCR4 Tumor-to-Tissue Ratio PC3-WT ([6]; 1 h p.i.): 2.5 ± 0.4
PC3-WT tumor activity ([6]; 1 h p.i.): 2.85±0.22 %ID/g
Pancreas tissue activity ([6]; 1 h p.i.): 0.28±0.02 %ID/g
Small Intestine tissue activity ([6]; 1 h p.i.): 3.67±0.44 %ID/g
Spleen tissue activity ([6]; 1 h p.i.): 2.49±0.04 %ID/g
Stomach tissue activity ([6]; 1 h p.i.): 0.16±0.03 %ID/g
Bone tissue activity [6, 8]: 0.44±0.15 %ID/g
Heart tissue activity [6, 8]: 0.13±0.04 %ID/g
Kidneys tissue activity [6, 8]: 5.10±0.33 %ID/g
Large Intestine tissue activity [6, 8]: 0.40±0.58 %ID/g
Liver tissue activity [6, 8]: 12.01 ± 4.67 %ID/g
Lungs tissue activity [6, 8]: 0.48±0.08 %ID/g
Muscle tissue activity [6, 8]: 0.17±0.16 %ID/g
PC3-CXCR4 tumor activity [6, 8]: 2.01±0.93 %ID/g
PC3-WT tumor activity [6, 8]: 1.21±0.47 %ID/g
Pancreas tissue activity [6, 8]: 0.32±0.01 %ID/g
Small Intestine tissue activity [6, 8]: 5.35±1.74 %ID/g
Spleen tissue activity [6, 8]: 0.12±0.03 %ID/g
Stomach tissue activity [6, 8]: 0.14±0.11 %ID/g
Bone tissue activity ([6]; 2 h p.i.): 1.26±0.06 %ID/g
Heart tissue activity ([6]; 2 h p.i.): 0.14±0.02 %ID/g
Kidneys tissue activity ([6]; 2 h p.i.): 5.05±0.80 %ID/g
Large Intestine tissue activity ([6]; 2 h p.i.): 4.60±0.57 %ID/g
Liver tissue activity ([6]; 2 h p.i.): 18.60±1.74 %ID/g
Lungs tissue activity ([6]; 2 h p.i.): 0.59±0.03 %ID/g
Muscle tissue activity ([6]; 2 h p.i.): 0.11±0.03 %ID/g
PC3-CXCR4 Tumor-to-Tissue Ratio Blood ([6]; 2 h p.i.): 51.1 ± 0.2
PC3-CXCR4 Tumor-to-Tissue Ratio Bone ([6]; 2 h p.i.): 3.5 ± 0.2
PC3-CXCR4 Tumor-to-Tissue Ratio Kidneys ([6]; 2 h p.i.): 0.9 ± 0.2
PC3-CXCR4 Tumor-to-Tissue Ratio Liver ([6]; 2 h p.i.): 0.2 ± 0.1
PC3-CXCR4 Tumor-to-Tissue Ratio Lungs ([6]; 2 h p.i.): 7.1 ± 0.2
PC3-CXCR4 Tumor-to-Tissue Ratio Muscle ([6]; 2 h p.i.): 38.8 ± 0.2
PC3-CXCR4 Tumor-to-Tissue Ratio PC3-WT ([6]; 2 h p.i.): 2.5 ± 0.2
PC3-CXCR4 tumor activity ([6]; 2 h p.i.): 4.31±0.47 %ID/g
PC3-WT tumor activity ([6]; 2 h p.i.): 1.66±0.08 %ID/g
Pancreas tissue activity ([6]; 2 h p.i.): 0.18±0.06 %ID/g
Small Intestine tissue activity ([6]; 2 h p.i.): 1.53±0.25 %ID/g
Spleen tissue activity ([6]; 2 h p.i.): 1.90±0.23 %ID/g
Stomach tissue activity ([6]; 2 h p.i.): 0.12±0.05 %ID/g
PC3-CXCR4 tumor uptake relative to [^18F]RPS-544 ([6]; mouse, in vivo): 2 fold
tumor-to-heart ratio ([6]; time not restated, follows the 1 h p.i. tumor-to-blood ratio): 28.8 ± 0.3
IC50 vs [^18F]RPS-544 compared with IC50 vs [^68Ga]Pentixafor (CXCR4 [7]): not significantly different
Structure (SMILES): FCCn1cc(-c2cc(CN3CCCNCCNCCCNCC3)ccc2CNCc2ccccn2)nn1 [RPS-534]
Cell-Associated Activity (PC3-CXCR4 cells [3]): 18.5 ± 3.7 %IA
internalized activity (PC3-CXCR4 cells [4]): approximately 2 %IA
internalized share of total cell-associated activity (PC3-CXCR4 cells [4]): approximately 7%
reduction of tumor activity by blocking ([6]; blocking dose 5 mg/kg AMD-3100): approximately 70%
